Measurements published in publication PMC8963254, “Effects of Lysine N-ζ-Methylation in Ultrashort Tetrabasic Lipopeptides (UTBLPs) on the Potentiation of Rifampicin, Novobiocin, and Niclosamide in Gram-Negative Bacteria” (Antibiotics, 2022).
≈ marks a conversion by molar mass, not a printed value. Where “and” joins values, the source holds several entries; their conditions need not be identical. Equal entries are not always repeated.

Experiments:
[1] = system: E. coli 94393; assay: microbe, parasite or virus in culture; format: cell-based, Escherichia coli; settings: Escherichia coli, 18 h; E. coli 94393 (mcr-1 +); read-out: MICs of various antibiotics
Procedure: (§1) The in vitro antibacterial activity of the UTBLPs was assessed against wild-type and clinically isolated bacterial strains. To obtain the MIC of the compounds, the microbroth dilution susceptibility assay was performed according to the Clinical and Laboratory Standards Institute (CLSI, Wayne, PA, USA) guidelines and as previously described. Briefly, the compounds at varying concentrations were incubated with bacterial inoculum (5 × 10^5 CFU/mL final concentration) at 37 °C for 18 h. Growth in the form of turbidity was confirmed using an EMax Plus microplate reader (Molecular Devices, San Jose, CA, USA) at 590 nm.

[2] = system: E. coli 94474; assay: microbe, parasite or virus in culture; format: cell-based, Escherichia coli; settings: Escherichia coli, 18 h; E. coli 94474 (mcr-1 +); read-out: MICs of various antibiotics
Procedure: as §1

[3] = system: E. cloacae 118564; assay: microbe, parasite or virus in culture; format: cell-based, Enterobacter cloacae; settings: Enterobacter cloacae, 18 h; E. cloacae 118564; read-out: MICs of various antibiotics
Procedure: as §1

[4] = system: K. pneumoniae 113250; assay: microbe, parasite or virus in culture; format: cell-based, Klebsiella pneumoniae; settings: Klebsiella pneumoniae, 18 h; K. pneumoniae 113250; read-out: MICs of various antibiotics
Procedure: as §1

[5] = system: P. aeruginosa PA259-96196; assay: microbe, parasite or virus in culture; format: cell-based, Pseudomonas aeruginosa; settings: Pseudomonas aeruginosa, PA25996196, 18 h; P. aeruginosa 259-96196; read-out: MICs of various antibiotics
Procedure: as §1

[6] = system: P. aeruginosa PA262-101856; assay: microbe, parasite or virus in culture; format: cell-based, Pseudomonas aeruginosa; settings: Pseudomonas aeruginosa, PA262101856, 18 h; P. aeruginosa 262-101856; read-out: MICs of various antibiotics
Procedure: as §1

[7] = system: A. baumannii AB027; assay: microbe, parasite or virus in culture; format: cell-based, Acinetobacter baumannii; settings: Acinetobacter baumannii, 18 h; A. baumannii AB027; read-out: MICs of various antibiotics
Procedure: as §1

[8] = system: MSSE 81388; format: cell-based, Staphylococcus epidermidis; settings: chloramphenicol alone
Procedure: (§2) The synergy of the UTBLPs with various antibiotics was assessed using checkerboard assay as previously described. Briefly, the combination of antibiotic and OMP at varying concentrations were incubated with bacterial inoculum (5 × 10^5 CFU/mL final concentration) at 37 °C for 18 h. Growth in the form of turbidity was confirmed using an EMax Plus microplate reader (Molecular Devices, Union City, CA, USA) at 590 nm. Fractional inhibitory concentration index (FICI) was used to evaluate the interaction between the antibiotic and the OMP. FICI is the sum of the FIC of the antibiotic and the FIC of the OMP. The FIC value is calculated by dividing the MIC of the agents in combination by the MIC of the agent alone. FICI ≤ 0.5 is synergistic, 0.5 < x ≤ 4 is additive, and >4 is antagonistic.

[9] = system: MRSE 61589; format: cell-based, Staphylococcus epidermidis; settings: chloramphenicol alone
Procedure: as §2

[10] = system: S. aureus ATCC 29213; format: cell-based, Staphylococcus aureus; settings: chloramphenicol alone
Procedure: as §2

[11] = system: MRSA ATCC 33592; format: cell-based, Staphylococcus aureus; settings: chloramphenicol alone
Procedure: as §2

[12] = system: E. faecalis ATCC 29212; format: cell-based, Enterococcus faecalis; settings: chloramphenicol alone
Procedure: as §2

[13] = system: P. aeruginosa PAO1; format: cell-based, Pseudomonas aeruginosa; settings: chloramphenicol alone
Procedure: as §2

[14] = system: A. baumannii ATCC 17978; format: cell-based, Acinetobacter baumannii; settings: chloramphenicol alone
Procedure: as §2

[15] = system: E. faecium ATCC 27270; format: cell-based, Enterococcus faecium; settings: chloramphenicol alone
Procedure: as §2

Structure (SMILES) | MIC [1] [mg/L] | MIC [2] [mg/L] | MIC [3] [mg/L] | MIC [4] [mg/L] | MIC [5] [mg/L] | MIC [6] [mg/L] | MIC [7] [mg/L] | MICchloramphenicol [8] | MICchloramphenicol [9] | MICchloramphenicol [10] | MICchloramphenicol [11] [µg/mL] | MICchloramphenicol [12] | MICantibiotic [13] | MICantibiotic [14] | MICchloramphenicol [15]
C[C@H]1[C@H](NC(=O)/C(=N\OC(C)(C)C(=O)O)c2csc(N)n2)C(=O)N1S(=O)(=O)O [AZT, aztreonam] | ≤ 0.12 | ≤ 0.12 | ≤ 0.12 | ≤ 0.12 | 32 (≈ 73.5 µM) | 32 (≈ 73.5 µM) | – | – | – | – | – | – | – | – | –
CC(C)(O/N=C(\C(=O)N[C@@H]1C(=O)N2C(C(=O)[O-])=C(C[n+]3ccccc3)CS[C@H]12)c1csc(N)n1)C(=O)O [CAZ, ceftazidime] | ≤ 0.25 | 0.5 (≈ 0.915 µM) | 0.5 (≈ 0.915 µM) | 0.5 (≈ 0.915 µM) | 512 (≈ 937 µM) | 16 (≈ 29.3 µM) | – | – | – | – | – | – | – | – | –
CO/N=C(\C(=O)N[C@@H]1C(=O)N2C(C(=O)O)=C(CSc3nc(=O)c(=O)[nH]n3C)CS[C@H]12)c1csc(N)n1 [CTR, ceftriaxone] | – | – | – | – | > 64 | 64 (≈ 115 µM) | – | – | – | – | – | – | – | – | –
CO/N=C(\C(=O)N[C@@H]1C(=O)N2C(C(=O)O)=C(COC(C)=O)CS[C@H]12)c1csc(N)n1 [CTX, cefotaxime] | – | – | – | – | 2050 (≈ 4500 µM) | 128 (≈ 281 µM) | > 256 | – | – | – | – | – | – | – | –
O=C(N[C@H](CO)[C@H](O)c1ccc([N+](=O)[O-])cc1)C(Cl)Cl [Chloramphenicol, chloramphenicol, reference compound] | 4 (≈ 12.4 µM) | 4 (≈ 12.4 µM) | – | 4 (≈ 12.4 µM) | 1020 (≈ 3170 µM) | 2050 (≈ 6340 µM) | 128 (≈ 396 µM) | 4 µg/mL and 8 µg/mL | 8 µg/mL and 16 µg/mL | 8 µg/mL and 16 µg/mL | 64 | 4 µg/mL and 8 µg/mL | 32 µg/mL and 16 µg/mL | 128 µg/mL and 64 µg/mL | 8 µg/mL and 4 µg/mL
C[C@@H](O)[C@H]1C(=O)N2C(C(=O)O)=C(S[C@@H]3CN[C@H](CNS(N)(=O)=O)C3)[C@H](C)[C@H]12 [DOR, doripenem] | – | – | – | – | > 1020 | 16 (≈ 38 µM) | – | – | – | – | – | – | – | – | –
C[C@H]1c2cccc(O)c2C(=O)C2=C(O)[C@]3(O)C(=O)C(C(N)=O)=C(O)[C@@H](N(C)C)[C@@H]3[C@@H](O)[C@@H]21 [DOX, doxycycline] | 4 (≈ 9 µM) | > 32 | 4 (≈ 9 µM) | 2 (≈ 4.5 µM) | 32 (≈ 72 µM) | 1020 (≈ 2300 µM) | – | – | – | – | – | – | – | – | –
CN(C)[C@@H]1C(O)=C(C(N)=O)C(=O)[C@@]2(O)C(O)=C3C(=O)c4c(O)c(NC(=O)CN5CCCC5)cc(F)c4C[C@H]3C[C@@H]12 [ERC, eravacycline] | 0.5 (≈ 0.895 µM) | 1 (≈ 1.79 µM) | – | 1 (≈ 1.79 µM) | 8 (≈ 14.3 µM) | 8 (≈ 14.3 µM) | 0.5 (≈ 0.895 µM) | – | – | – | – | – | – | – | –
C[C@@H](O)[C@H]1C(=O)N2C(C(=O)O)=C(S[C@@H]3CN[C@H](C(=O)Nc4cccc(C(=O)O)c4)C3)[C@H](C)[C@H]12 [ETP, ertapenem] | ≤ 0.03 | ≤ 0.03 | – | ≤ 0.03 | > 32 | > 32 | – | – | – | – | – | – | – | – | –
CNC(C)C1CCC(N)C(OC2C(N)CC(N)C(OC3OCC(C)(O)C(NC)C3O)C2O)O1 (stereo not drawn) [GEN, gentamicin] | ≤ 0.5 | 16 (≈ 33.5 µM) | 1 (≈ 2.09 µM) | ≤ 0.5 | > 32 | > 32 | 32 (≈ 67 µM) | – | – | – | – | – | – | – | –
